Experimental data taken from patent US10138282B2, “Peptide antagonist of LL-37” (INDIANA UNIVERSITY RESEARCH AND TECHNOLOGY CORPORATION, priority 2014, dated 2018).
“Also recorded” adds a separate entry of the source.

Tests used:
[1] = tested on: LL-37 enhancement of TLR3 signaling; test: Antagonism of LL-37/poly(I:C)-enhanced IL-6 production in BEAS-2B cells; type: cell-based, human
Procedure: (§1) IL-6 production was quantified by ELISA using the OptEIA™ kit (BD Biosciences). A typical assay used 2×10^4 BEAS-2B cells/well grown for 24 h in flat bottom 96-well plates. Poly(I:C) was added to a final concentration of 0.13 μg/ml. Antimicrobial peptides were added to the cell culture medium to a final concentration of 3 μM unless specified otherwise. All ELISA results shown were performed in triplicate and in at least three independent experiments.
We examined whether LL-29 could affect the enhancement of TLR3 signaling by WT LL-37/poly(I:C). An increasing amount of LL-29 along with a constant amount of LL-37/poly(I:C) was used to assess IL-6 production in BEAS-2B cells. […] That is, LL-29 abrogated LL-37's ability to enhance TLR3 signaling. That is, LL-29 is an example of a peptide antagonist of LL-37 function.

[2] = tested on: Escherichia coli ATCC 25922; test: MIC assay, broth microdilution (CLSI); type: cell-based; conditions: E. coli ATCC 25922
Procedure: MIC assays were performed according to protocols for broth microdilution according to the Clinical Laboratory Standards Institute (CLSI, 2015. Methods for Dilution Antimicrobial susceptibility tests for bacterial that grow aerobically; Approved standard—tenth edition).

[3] = biological target: T1, FPRL-1 receptor (Homo sapiens, UniProt P25090); test: IL-6 production in BEAS-2B cells knocked down with siRNA (FPRL-1, EGFR, control); type: cell-based
T1 construct: a human lung epithelial cell line that expresses endogenous FPRL-1; endogenous in cells; host or cells: BEAS-2B
T1 sequence (P25090 1-351): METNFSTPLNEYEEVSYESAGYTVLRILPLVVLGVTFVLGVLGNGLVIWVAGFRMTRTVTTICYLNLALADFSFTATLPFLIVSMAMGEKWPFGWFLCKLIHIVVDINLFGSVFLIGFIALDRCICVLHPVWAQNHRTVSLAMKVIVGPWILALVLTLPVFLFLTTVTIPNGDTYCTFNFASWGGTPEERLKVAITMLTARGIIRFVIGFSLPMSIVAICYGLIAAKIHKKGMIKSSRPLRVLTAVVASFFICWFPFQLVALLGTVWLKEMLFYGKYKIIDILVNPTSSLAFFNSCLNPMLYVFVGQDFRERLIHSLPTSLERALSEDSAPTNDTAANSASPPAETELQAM
Procedure: BEAS-2B cells were seeded at 2×10^6 cells per 6-well plate for 6 h prior to transfection with 30 nM of a pool of three siRNAs from Santa Cruz Biotechnology. Transfections were done using Lipofectamine 2000.
Cells were grown on poly-L-lysine (Life Technologies). The level of target mRNA was analyzed using qRT-PCR and normalized to the levels of GAPDH mRNA. The sequences of the primers will be made available upon request. Poly(I:C) was added 48 h after siRNA transfection and IL-6 levels in the culture media were collected 24 h later.
LL-37's enhancement of TLR3 signaling required trafficking of LL-37/poly(:C) to endosomes via the FPRL-1 receptor. Therefore, we examined whether LL-29 used the FPRL-1 receptor to enter cells. siRNA was used to knock down the expression of either FPRL-1, EGFR, or TLR3. […] Co-localization of fLL-37 and rpIC was reduced to less than a third of the control. […] Knockdowns performed with siRNAs to either a nonspecific control or EGFR had no effect on the enhancement of IL-6 production.
Will LL-29 affect the use of the FPRL-1 receptor by the LL-37/poly(I:C) complex? BEAS-2B cells knocked down for FPRL-1 were treated with LL-37 along with additional concentrations of LL-37, Pentamide, LL-29, Peptide A, or LL8-37 (FIG. 6C). Signaling by TLR3 was determined by the amount of IL-6 secreted in the cell culture media. A control siRNA had no effect on WT LL-37/poly(I:C) enhancement of IL-6 production.
LL-37 uses the Formyl peptide receptor-like 1 (FPRL-1) receptor to deliver nucleic acids into endosomes, where activation of the Toll-like receptors that recognize nucleic acids takes place (Singh et al., 2014). We sought to determine whether the LL-37 orthologs from other mammals could also use the FPRL-1 in the human BEAS-2B cells to deliver dsRNA. BEAS-2B cells were treated with poly(I:C) along with the peptides and the peptides from pig, sheep, rabbit, and mouse had reduced ability to use the FPRL-1 to activate IL-6 production.

[4] = Dynamic light scatter spectroscopy, hydrodynamic radius; type: physicochemical
Procedure: The hydrodynamic radii of LL-37 and other peptides were monitored by a Zetasizer Nano-S instrument (Malvern Instruments). All measurements were taken with 1 μM of peptide dissolved in phosphate buffer adjusted to the desired pH at 22° C.

[5] = biological target: T2, f-LL37 (Homo sapiens, UniProt P49913); test: Fluorescence polarization, interaction of peptides with fluorescein-labeled LL-37; type: binding
T2 sequence (P49913 134-170 limits assumed): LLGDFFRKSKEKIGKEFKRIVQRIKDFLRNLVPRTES
Procedure: (§2) Peptide binding to poly(I:C) was analyzed by monitoring fluorescence polarization using the Synergy H1 microplate reader (BioTek). Fluorescein-labeled LL-37 was titrated to a 100 μL solution containing poly(I:C) and phosphate buffers at different pHs. Interactions between LL-37 and other peptides were analyzed using LL-37 labeled at the N-terminus with fluorescein (0.1 μM), and peptides were titrated from 1 nM to 1000 nM in phosphate buffer at pH 7.0. Interaction between poly(I:C) and different peptides was determined by titrating fluorescein-labeled poly(I:C) (0.1 μM) with peptides added to final concentrations of 10 to 500 nM in phosphate buffer at pH 7.4. All polarization assays were performed in triplicate.

[6] = tested on: TLR3 signaling; test: IL-6 production (ELISA) in BEAS-2B cells induced with poly(I:C); type: cell-based, human
Procedure: as §1
(§3) To better define how residues in LL-37 contribute to function, several variants derived from LL-37 were tested for: 1) repression of TLR4 signaling by LPS, 2) enhancement of TLR3 signaling by poly(I:C), and 3) binding to LL-37. Signaling by TLR3 and TLR4 were monitored using ELISA to detect IL-6 secreted into the medium of BEAS-2B cells.

[7] = tested on: TLR4 signaling; test: IL-6 production (ELISA) in BEAS-2B cells induced with LPS; type: cell-based, human
Procedure: as §1, §3

[8] = tested on: TLR3; test: Confocal microscopy, co-localization with TLR3 in BEAS-2B cells; type: cell-based, human
Procedure: Cells were grown on poly-L-lysine coated coverslips to 60% confluency. After 1 h incubation with fluorescently-labeled peptides in the absence or presence of poly(I:C), the cells were washed with PBS and fixed with 4% paraformaldehyde for 15 min at room temperature. The cells were again washed with PBS and mounted on glass slides with anti-fade mounting medium and DAPI (Life Technology), then dried overnight in the dark. Micrographs were acquired with a Leica TCS SP5 confocal inverted-base microscope with a 63× oil objective. Images were analyzed by Leica LAS AF and Image J software. Colocalization of fluorophores was quantified using the Image J plug-in tool JACoP (16).
We examined whether it could prevent the trafficking of LL-37/poly(I:C) to endosomes that harbor TLR3. Confocal microscopy was used to examine the effect of LL-29 on the colocalization of LL-37/poly(I:C) with TLR3 in BEAS-2B cells.

[9] = in vitro; type: cell-based; conditions: human, Half-life of LL-37 in cells
Procedure: Acidification of endosomes can activate cathepsins that can cleave TLR3, 7, and 9 and increase signaling. We examined whether LL-37 would be subject to proteolysis, possibly by cathepsins. BEAS-2B cells were treated with LL-37 in the absence or presence of poly(I:C) for 15 min, then washed with phosphate-buffered saline and incubated with fresh medium. The cells were harvested over time, lysed and subjected to Western blot analysis. LL-37 accumulation decreased over time, with an estimated half-life of 1 h (FIG. 4A, 4B). Cells treated with ammonium chloride or the cathepsin inhibitor Z-FA-FMK had half-lives in excess of 12 h (FIG. 4A, 4B).

[10] = tested on: Toll-like receptor 9; test: IL-6 production in BEAS-2B cells in the presence of ssDNA ligand ODN; type: cell-based, human
[11] = tested on: Reovirus dsRNA, Reo S4; test: IL-6 production in BEAS-2B cells in the presence of Reovirus dsRNA Reo S4; type: cell-based, human
Procedure: as §1
Herein, we analyzed the LL-37 orthologs from Rhesus monkeys, pig, sheep, guinea pigs, rabbit, as well as mouse (FIG. 14A). All peptides were chemically synthesized and assayed for the induction of inflammatory cytokine IL-6 in the presence of the double-stranded RNA mimic, poly(I:C) or the Reovirus dsRNA, Reo S4 (FIGS. 14B and 14C). […] Importantly, all LL-37 orthologs tested had the ability to reduce IL-6 production in response to LPS (FIG. 14E).

[12] = tested on: poly(I:C); test: Fluorescence polarization, peptide binding to poly(I:C)
Procedure: as §2
LL-37 accompanies dsRNA to endosomes containing TLR3. However, it is unknown whether LL-37 will release the dsRNA in endosomes. Johansson et al. (1998) have previously determined that a neutral pH is required for the activity of LL-37. We seek to determine whether LL-37 binding to dsRNA can be affected by pH.

Compound: LLGDFFRKSKEKIGKEFKRIVQRIKDFLR ((1)..(29) LL29; listed as Homo sapiens) [LL-29]
- IL-6 production with LL-37/poly(I:C) at four molar excess of peptide, in words ([1]; four molar excess of LL-29 relative to LL-37): comparable to the level observed in the absence of LL-37
- Antagonism of LL-37 enhancement of TLR3 signaling (IL-6), in words ([1]; peptide added with LL-37/poly(I:C), BEAS-2B cells): reduced the enhancement of TLR3 signaling by LL-37 in a concentration-dependent manner
- MIC assay result, peptide without antibiotic ([2]; peptide 10 μg/ml, antibiotic: None): growth
- MIC (μg/ml) of Doxorubicin in the presence of peptide ([2]; peptide final conc. 10 μg/ml): ≤0.06 µg/mL
- MIC (μg/ml) of Kanamycin in the presence of peptide ([2]; peptide final conc. 10 μg/ml): ≤0.5 µg/mL
- MIC (μg/ml) of Trimethoprim in the presence of peptide ([2]; peptide final conc. 10 μg/ml): ≤0.06 µg/mL
- Improvement of the MIC of antibiotics by peptide ([2]; with doxorubicin, kanamycin, trimethoprim): at least 4 fold
- IL-6 production, peptide with poly(I:C), in words ([3]; knockdown of either FPRL-1 or EGFR): did not enhance IL-6 production
- IL-6 production, peptide added along with LL-37 and poly(I:C), in words ([3]; siRNA to FPRL-1 or nonspecific control): resulted in a reduction in IL-6 levels
- Hydrodynamic radius (nm) pH 5.8 ([4]; 1.0 μM peptide, phosphate buffer pH 5.8): 8 nm
- Hydrodynamic radius (nm) pH 7.4 ([4]; 1.0 μM peptide, phosphate buffer pH 7.4): 1106 nm
- pH-dependent dissociation of peptide particles, in words ([4]; acidification of phosphate buffer): readily dissociated into nanometer-sized particles; also recorded: dissociated as a function of pH
- Interaction with fLL-37, in words [5]: interacted with fLL-37 to the same degree as LL-37; also recorded: comparable ability to interact with fLL-37
- IL-6 production (%) poly(I:C)-depend. ([6]; BEAS-2B cells induced with 130 ng/ml of poly(I:C), LL-37 100): 47 ± 3%
- Suppression of TLR4 signaling / LPS-induced IL-6, in words ([7]; BEAS-2B cells): retained the ability to suppress TLR4 signaling in response to LPS
- IL-6 production (%) LPS-depend. ([7]; BEAS-2B cells induced with 1.0 μg/ml of LPS, LL-37 100): 143 ± 18%
- IL-6 production in response to LPS, % of the control level without either of the two peptides ([7]; four molar excess of LL-29 to LL-37, BEAS-2B cells): 64%
- Effect of added peptide on co-localization of fLL-37 and TLR3, in words ([8]; added to fLL-37 and poly(I:C)): reduced the co-localization between fLL-37 and TLR3

Compound: CC[C@H](C)[C@H](NC(=O)[C@H](CCCCN)NC(=O)[C@H](CCC(=O)O)NC(=O)[C@H](CCCCN)NC(=O)[C@H](CO)NC(=O)[C@H](CCCCN)NC(=O)[C@H](CCCNC(=N)N)NC(=O)[C@H](Cc1ccccc1)NC(=O)[C@H](Cc1ccccc1)NC(=O)[C@H](CC(=O)O)NC(=O)CNC(=O)[C@H](CC(C)C)NC(=O)[C@@H](N)CC(C)C)C(=O)NCC(=O)N[C@@H](CCCCN)C(=O)N[C@@H](CCC(=O)O)C(=O)N[C@@H](Cc1ccccc1)C(=O)N[C@@H](CCCCN)C(=O)N[C@@H](CCCNC(=N)N)C(=O)N[C@H](C(=O)N[C@H](C(=O)N[C@@H](CCC(N)=O)C(=O)N[C@@H](CCCNC(=N)N)C(=O)N[C@H](C(=O)N[C@@H](CCCCN)C(=O)N[C@@H](CC(=O)O)C(=O)N[C@@H](Cc1ccccc1)C(=O)N[C@@H](CC(C)C)C(=O)N[C@@H](CCCNC(=N)N)C(=O)N[C@@H](CC(N)=O)C(=O)N[C@@H](CC(C)C)C(=O)N[C@H](C(=O)N1CCC[C@H]1C(=O)N[C@@H](CCCNC(=N)N)C(=O)N[C@H](C(=O)N[C@@H](CCC(=O)O)C(=O)N[C@@H](CO)C(=O)O)[C@@H](C)O)C(C)C)[C@@H](C)CC)C(C)C)[C@@H](C)CC [LL-37]
- half-life [9]: ~1 h
- half-life ([9]; cells or culture medium): ~1 h

Compound: CAP-18: LL-37 ortholog from rabbit, SEQ ID NO: 24 (GLRKRLRKFRNKIKEKLKKIGQKIQGLLPKLAPRTDY; (1)..(37) Rabbit CAP-18)
- Induction of signaling by the ssDNA ligand for Toll-like receptor 9, in words [10]: failed to induce signaling
- Enhancement of IL-6 production / signaling by Reo S4, in words [11]: failed to enhance signaling
- Enhancement of TLR3 signaling / poly(I:C)-induced IL-6, in words ([6]; BEAS-2B cells): failed to enhance signaling

Compound: fLL-37: 5′ carboxyfluorescein coupled to the N-terminus of LL-37 [reference compound]
- Binding to poly(I:C)/dsRNA in fluorescent polarization assay, in words [12]: polarization increased as a function of poly(I:C) concentration
- Co-localization of peptide with TLR3, in words ([8]; with poly(I:C)): found to colocalize with TLR3
